pIC50: −log10 of the molar value.
Assays:
Assay type in all cases: cell-based
[1] = system: DMS-114 (FGFR1 overexpression) cells; assay: cell proliferation assay (CellTiterGlo), DMS-114 cells; conditions: Homo sapiens, DMS-114, 72 h
Description: (§1) In some embodiments, the biological assay assess the ability of the compounds to inhibit cell proliferation.
(§2) In some embodiments, cells (e.g., SNU-16 (FGFR2-amplification) cells) may be suspended and dispensed in plates. In some embodiments, cells (e.g., UM-UC-14 (FGFR3-S249C) cells) may be suspended and dispensed in plates. In some embodiments, cells (e.g., DMS-114 (FGFR1 overexpression) cells) may by suspended and dispensed in plates. In some embodiments, cells (e.g., RT-112 (FGFR3-Tacc3 fusion) cells) may be suspended and dispensed in plates. In some embodiments, to determine the effect of the compounds of the present disclosure on cell proliferation, cells (e.g., SNU-16, UM-UC-14, DMS-114 and […] cells) may be incubated in the presence of vehicle control (e.g., DMSO) or a compound of the present disclosure at varying concentrations and the inhibition of cell growth may be determined by luminescent quantification (e.g., of intracellular ATP content using CellTiterGlo), according to the manufacturers protocol. In some embodiments, to determine the IC50 values, the vehicle-treated cells were normalized as viable cells and the growth was analyzed using a software (e.g., the CDD Vault software (Collaborative Drug Discovery, Burlingame, CA)).

[2] = system: UM-UC-14 (FGFR3-S249C) cells; assay: cell proliferation assay (CellTiterGlo), UM-UC-14 cells; conditions: UMUC14, 72 h
Description: as §1, §2

[3] = system: RT-112 (FGFR3-Tacc3 fusion) cells; assay: cell proliferation assay (CellTiterGlo), RT-112 cells; conditions: Homo sapiens, RT-112, RT112 cells, 72 hours
Description: as §1, §2

[4] = system: SNU-16 (FGFR2-amplification) cells; assay: cell proliferation assay (CellTiterGlo), SNU-16 cells; conditions: Homo sapiens, 72 hours
Description: as §1, §2

`Cc1nc2ccc(Oc3ccc4ncc(-c5cnn([C@H]6C[C@@H](O)C6)c5)nc4c3Cl)cc2[nH]1` [Compound 173] showed a pIC50 [1] of 6.40 to 7.00 and a pIC50 [2] of 7.00 to 7.70.

Compound `Cc1nc2ccc(Oc3ccc4ncc(-c5cnn(C[C@H]6C[C@@](C)(O)C6)c5)nc4c3Cl)c(F)c2[nH]1` [Compound 167] has a pIC50 [1] of 7.00 to 7.70 and a pIC50 [2] greater than 7.70.

Work on `Cc1nc2ccc(Oc3ccc4ncc(-c5cnn(CC6(O)CC6)c5)nc4c3C3CCOC3)c(F)c2[nH]1` (centres unmarked) [Compound 70] yielded a pIC50 [3] of 7.00 to 7.70, a pIC50 [1] of 7.00 to 7.70 and a pIC50 [2] of 7.00 to 7.70.

`Cc1nc2ccc(Oc3ccc4ncc(-c5cnn(CC6CC(F)(F)C6)c5)nc4c3N)cc2[nH]1` [Compound 159] was tested, and the pIC50 [1] was no more than 6.40 and the pIC50 [2] was no more than 6.40.

With `Cc1nc2ccc(Oc3ccc4ncc(-c5cnn(C6CC7(CC(O)C7)C6)c5)nc4c3Cl)cc2[nH]1` (centres unmarked) [Compound 161] the pIC50 [1] was no more than 6.40 and the pIC50 [2] was 7.00 to 7.70.

For `Cc1nc2ccc(Oc3ccc4ncc(-c5cnn(CC6CC(F)(F)C6)c5)nc4c3NC(=O)CCCCl)cc2[nH]1` [Compound 120], the pIC50 [3] was 6.40 to 7.00, the pIC50 [1] was no more than 6.40 and the pIC50 [2] was 6.40 to 7.00.

`Cc1nc2ccc(Oc3ccc4ncc(-c5cnn(C6(C)CC=C(F)CC6)c5)nc4c3Cl)cc2[nH]1` (centres unmarked) [Compound 170] showed a pIC50 [1] of no more than 6.40 and a pIC50 [2] of 6.40 to 7.00.

`Cc1nc2ccc(Oc3ccc4ncc(-c5cnn([C@H]6C[C@@](C)(O)C6)c5)nc4c3Cl)cc2[nH]1` [Compound 168] gave a pIC50 [1] of no more than 6.40 and a pIC50 [2] of 7.00 to 7.70.

For `Cc1nc2ccc(Oc3ccc4ncc(-c5cnn(C6CC7(C6)CC(F)(F)C7)c5)nc4c3Cl)cc2[nH]1` [Compound 101], the pIC50 [3] was 6.40 to 7.00, the pIC50 [1] was no more than 6.40 and the pIC50 [2] was 6.40 to 7.00.

Work on `Cc1nc2ccc(Oc3ccc4ncc(-c5cnn(C6CC(=O)C6)c5)nc4c3Cl)c(F)c2[nH]1` [Compound 156] yielded a pIC50 [1] of 7.00 to 7.70 and a pIC50 [2] greater than 7.70.

Work on `Cc1nc2ccc(Oc3ccc4ncc(-c5cnn(C6CCNC7(CC7)C6)c5)nc4c3Cl)cc2[nH]1` (centres unmarked) [Compound 176] yielded a pIC50 [1] of 6.40 to 7.00, a pIC50 [2] greater than 7.70 and a pIC50 [4] of 6.40 to 7.00.

Compound `Cc1nc2ccc(Oc3ccc4ncc(-c5cnn(CC6(O)CC6)c5)nc4c3C3=CCCC3)cc2[nH]1` [Compound 164] has a pIC50 [1] of 7.00 to 7.70 and a pIC50 [2] of 7.00 to 7.70.

For `Cc1nc2ccc(Oc3ccc4ncc(-c5cnn([C@@H](C)CO)c5)nc4c3Cl)cc2[nH]1` [Compound 125], the pIC50 [3] was 7.00 to 7.70, the pIC50 [1] was no more than 6.40 and the pIC50 [2] was 7.00 to 7.70.

`COC1CCN(C(=O)Cn2cc(-c3cnc4ccc(Oc5ccc6nc(C)[nH]c6c5)c(Cl)c4n3)cn2)CC1` [Compound 113] gave a pIC50 [3] of 7.00 to 7.70, a pIC50 [1] of no more than 6.40 and a pIC50 [2] of 7.00 to 7.70.

`Cc1nc2ccc(Oc3ccc4ncc(-c5cnn(CC6CC(F)(F)C6)c5)nc4c3N3CCCC3=O)cc2[nH]1` [Compound 117] was tested, and the pIC50 [3] was no more than 6.40, the pIC50 [1] was no more than 6.40 and the pIC50 [2] was no more than 6.40.

Work on `Cc1nc2ccc(Oc3ccc4ncc(-c5cnn(C[C@H]6C[C@](C)(O)C6)c5)nc4c3Cl)cc2[nH]1` [Compound 181] yielded a pIC50 [1] of no more than 6.40, a pIC50 [2] of 7.00 to 7.70 and a pIC50 [4] greater than 7.70.

For `Cc1nc2ccc(Oc3ccc4ncc(-c5cnn(CC(=O)N6CCOCC6)c5)nc4c3Cl)c(F)c2[nH]1` [Compound 155], the pIC50 [1] was 7.00 to 7.70 and the pIC50 [2] was greater than 7.70.

For `Cc1nc2cc(Oc3ccc4ncc(-c5cnn(CC6CC(F)(F)C6)c5)nc4c3C=O)ccc2[nH]1` [Compound 158], the pIC50 [1] was no more than 6.40 and the pIC50 [2] was no more than 6.40.

Work on `CC(=O)N1CCN(C(=O)Cn2cc(-c3cnc4ccc(Oc5ccc6nc(C)[nH]c6c5)c(Cl)c4n3)cn2)CC1` [Compound 114] yielded a pIC50 [3] of 6.40 to 7.00, a pIC50 [1] of no more than 6.40 and a pIC50 [2] of no more than 6.40.

Compound `Cc1nc2ccc(Oc3ccc4ncc(-c5cnn(C6CCN(C)C7(CC7)C6)c5)nc4c3Cl)cc2[nH]1` (centres unmarked) [Compound 163] has a pIC50 [1] of 6.40 to 7.00 and a pIC50 [2] of 7.00 to 7.70.

With `Cc1nc2ccc(Oc3ccc4ncc(-c5cnn(C6CCN(C(=O)N(C)C)CC6)c5)nc4c3Cl)cc2[nH]1` [Compound 261] the pIC50 [1] was 7.00 to 7.70, the pIC50 [2] was greater than 7.70 and the pIC50 [4] was greater than 7.70.

`Cc1nc2ncc(Oc3ccc4ncc(-c5cnn(C6CCC(F)(F)CC6)c5)nc4c3Cl)cc2[nH]1` [Compound 169] was tested, and the pIC50 [1] was no more than 6.40 and the pIC50 [2] was no more than 6.40.

`Cc1nc2ccc(Oc3ccc4ncc(-c5cnn(CC6(O)CC(O)C6)c5)nc4c3Cl)c(F)c2[nH]1` (centres unmarked) [Compound 102] showed a pIC50 [3] greater than 7.70, a pIC50 [1] of 7.00 to 7.70 and a pIC50 [2] greater than 7.70.

`Cc1nc2ccc(Oc3ccc4ncc(-c5cnn(C[C@H](C)O)c5)nc4c3Cl)c(F)c2[nH]1` [Compound 118] was tested, and the pIC50 [3] was greater than 7.70, the pIC50 [1] was 6.40 to 7.00 and the pIC50 [2] was greater than 7.70.

In the case of `Cc1nc2ccc(Oc3ccc4ncc(-c5cnn([C@@H](C)C6CCC(F)(F)CC6)c5)nc4c3Cl)cc2[nH]1` [Compound 104], the pIC50 [3] was 7.00 to 7.70, the pIC50 [1] was no more than 6.40 and the pIC50 [2] was 7.00 to 7.70.

`Cc1nc2ccc(Oc3ccc4ncc(-c5cnn(C[C@H]6C[C@@](C)(O)C6)c5)nc4c3Cl)cc2[nH]1` [Compound 180] was tested, and the pIC50 [1] was no more than 6.40, the pIC50 [2] was 7.00 to 7.70 and the pIC50 [4] was 7.00 to 7.70.

Compound `Cc1nc2ccc(Oc3ccc4ncc(-c5cnn(C[C@H]6C[C@](C)(O)C6)c5)nc4c3Cl)c(F)c2[nH]1` [Compound 166] has a pIC50 [1] of 6.40 to 7.00 and a pIC50 [2] of 7.00 to 7.70.

In the case of `Cc1nc2ccc(Oc3ccc4ncc(-c5cnn(C6CC7(CC(=O)C7)C6)c5)nc4c3Cl)cc2[nH]1` [Compound 165], the pIC50 [1] was no more than 6.40 and the pIC50 [2] was 7.00 to 7.70.

For `Cc1nc2ccc(Oc3ccc4ncc(-c5cnn([C@H]6C[C@H](O)C6)c5)nc4c3Cl)cc2[nH]1` [Compound 172], the pIC50 [1] was no more than 6.40 and the pIC50 [2] was 6.40 to 7.00.

`Cc1nc2ccc(Oc3ccc4ncc(-c5cnn(CC6CC(F)(F)C6)c5)nc4c3C3CCOC3)c(F)c2[nH]1` (centres unmarked) [Compound 72] showed a pIC50 [3] greater than 7.70, a pIC50 [1] of 7.00 to 7.70 and a pIC50 [2] of 7.00 to 7.70.

`Cc1nc2ccc(Oc3ccc4ncc(-c5cnn(CC6(O)CC6)c5)nc4c3Cl)c(F)c2[nH]1` [Compound 162] was tested, and the pIC50 [1] was 7.00 to 7.70 and the pIC50 [2] was 7.00 to 7.70.

`Cc1nc2ccc(Oc3ccc4ncc(-c5cnn(CC6(O)CC6)c5)nc4c3I)cc2[nH]1` [Compound 129] gave a pIC50 [3] of 7.00 to 7.70, a pIC50 [1] of no more than 6.40 and a pIC50 [2] of 7.00 to 7.70.

In the case of `Cc1nc2ccc(Oc3ccc4ncc(-c5cnn(C6(C)CCC(F)(F)CC6)c5)nc4c3Cl)cc2[nH]1` [Compound 171], the pIC50 [1] was no more than 6.40 and the pIC50 [2] was 6.40 to 7.00.

With `Cc1nc2ccc(Oc3ccc4ncc(-c5cnn(CC6(O)CC6)c5)nc4c3-n3ccnc3)c(F)c2[nH]1` [Compound 103] the pIC50 [3] was 6.40 to 7.00, the pIC50 [1] was no more than 6.40 and the pIC50 [2] was 6.40 to 7.00.

For `Cc1nc2cc(Oc3ccc4ncc(-c5cnn(CC6CC(F)(F)C6)c5)nc4c3C(F)F)ccc2[nH]1` [Compound 157], the pIC50 [1] was 6.40 to 7.00 and the pIC50 [2] was 7.00 to 7.70.

With `Cc1nc2ccc(Oc3ccc4ncc(-c5cnn(C(C)(C)C6CC(O)C6)c5)nc4c3Cl)cc2[nH]1` (centres unmarked) [Compound 160] the pIC50 [1] was 6.40 to 7.00 and the pIC50 [2] was 7.00 to 7.70.

`Cc1nc2ccc(Oc3ccc4ncc(-c5cnn(C(C)(C)CO)c5)nc4c3Cl)c(F)c2[nH]1` [Compound 142] showed a pIC50 [3] greater than 7.70, a pIC50 [1] of 6.40 to 7.00 and a pIC50 [2] greater than 7.70.

In the case of `Cc1nc2ccc(Oc3ccc4ncc(-c5cnn(CC6CC(F)(F)C6)c5)nc4c3C3=CCOC3(C)C)cc2[nH]1` [Compound 71], the pIC50 [3] was 6.40 to 7.00, the pIC50 [1] was 6.40 to 7.00 and the pIC50 [2] was 7.00 to 7.70.

`Cc1nc2ccc(Oc3ccc4ncc(-c5cnn([C@H](C)C6CCC(F)(F)CC6)c5)nc4c3Cl)cc2[nH]1` [Compound 105] was tested, and the pIC50 [3] was 7.00 to 7.70, the pIC50 [1] was no more than 6.40 and the pIC50 [2] was 7.00 to 7.70.

Compound `Cc1nc2ccc(Oc3ccc4ncc(-c5cnn(CC6CCS(=O)(=O)CC6)c5)nc4c3S(C)(=O)=O)cc2[nH]1` [Compound 116] has a pIC50 [3] of no more than 6.40, a pIC50 [1] of no more than 6.40 and a pIC50 [2] of 6.40 to 7.00.

Reference: patent US20240368181A1, “QUINOXALINE DERIVATIVES AND USES THEREOF” (Black Diamond Therapeutics, Inc., priority 2021, published 2024)
